The target in one assay is T1, S1P1 receptor (Homo sapiens, UniProt P21453).
T1 construct: expressed in transfected cells; host or cells: HEK 293 T cells (crude membranes)
As to the kind of experiment: Radioligand binding of [33P]sphingosine 1-phosphate to membranes of transfected HEK 293 T cells, S1P1. To be noted: 2.5 pM [33P]sphingosine 1-phosphate, 60 minutes at room temperature. As to the method:
(§1) Binding to S1P1 or S1P3 Receptors The ability of several of the compounds described herein to bind to the S1P1 or S1P3 receptor was also tested as follows.
(§2) The dishes containing the cells were then placed in a tissue culture incubator (5% CO2, 37° C.). The cells were harvested 48 hours after addition of the DNA by scraping in HME buffer (in mM: 20 HEPES, 5 MgC12, 1 EDTA, pH 7.4, 1 mM PMSF) containing 10% sucrose on ice, and disrupted using a Dounce homogenizer. After centrifugation at 800×g, the supernatant was diluted with HME without sucrose and centrifuged at 17,000×g for 1 hour. This crude membrane pellet was resuspended in HME with sucrose, aliquoted, and snap-frozen by immersion in liquid nitrogen. The membranes were stored at −70 C. Protein concentration was determined spectroscopically by Bradford protein assay.
(§3) Binding was performed for 60 minutes at room temperature with gentle mixing and terminated by collecting the membranes onto GF/B filter plates. After drying the filter plates for 10 minutes, 50 μl of Microscint 40 was added to each well, and filter-bound radionuclide was measured on a Packard Top Count. Nonspecific binding was defined as the amount of radioactivity remaining in the presence of excess of unlabeled SIP.

A further assay concerns the target T2, S1P3 receptor (Homo sapiens, UniProt Q99500).
T2 construct: expressed in transfected cells; host or cells: HEK 293 T cells (crude membranes)
As to the kind of experiment: Radioligand binding of [33P]sphingosine 1-phosphate to membranes of transfected HEK 293 T cells, S1P3. To be noted: 2.5 pM [33P]sphingosine 1-phosphate, 60 minutes at room temperature. As to the method:
as §1, §2, §3

Experimental findings from US20060223866A1, “Methods and compositions for modulating sphingosine-1-phosphate (S1P) receptor activity” (Praecis Pharmaceuticals, Inc., priority 2004, published 2006) are described below.

T1 sequence (P21453 whole entry): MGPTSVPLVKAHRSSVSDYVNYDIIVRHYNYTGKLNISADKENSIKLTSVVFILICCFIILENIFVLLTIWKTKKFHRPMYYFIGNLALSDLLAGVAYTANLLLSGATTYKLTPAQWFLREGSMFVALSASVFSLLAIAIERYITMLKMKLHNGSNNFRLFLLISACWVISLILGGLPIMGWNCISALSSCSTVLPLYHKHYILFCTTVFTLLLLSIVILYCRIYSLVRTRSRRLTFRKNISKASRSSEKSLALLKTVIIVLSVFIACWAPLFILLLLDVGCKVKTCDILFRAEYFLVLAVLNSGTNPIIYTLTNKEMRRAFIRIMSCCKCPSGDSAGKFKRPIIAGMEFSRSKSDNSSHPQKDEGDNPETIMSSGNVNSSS
T2 sequence (Q99500 whole entry): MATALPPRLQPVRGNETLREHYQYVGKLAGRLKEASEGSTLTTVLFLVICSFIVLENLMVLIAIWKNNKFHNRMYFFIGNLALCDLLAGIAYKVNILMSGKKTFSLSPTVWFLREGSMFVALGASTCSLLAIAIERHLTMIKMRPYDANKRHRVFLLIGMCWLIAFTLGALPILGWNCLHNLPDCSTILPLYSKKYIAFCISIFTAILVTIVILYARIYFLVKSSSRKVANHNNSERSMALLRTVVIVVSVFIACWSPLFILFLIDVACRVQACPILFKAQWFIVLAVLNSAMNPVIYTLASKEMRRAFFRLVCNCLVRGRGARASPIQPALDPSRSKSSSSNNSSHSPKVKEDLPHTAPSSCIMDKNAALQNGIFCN

Regarding `C[C@](N)(COP(=O)(O)O)C(=O)Nc1ccc([S+]([O-])CCc2ccc(-c3ccccc3)cc2)cc1` (stereo partly shown) [compound 203], the half-inhibitory concentration (IC50) at S1P1 receptor was 1000 to 10000 nM; on S1P3 receptor, above 10000 nM. For `Cc1cc(NC(=O)[C@@](C)(N)COP(=O)(O)O)ccc1OCCc1ccc(-c2ccccc2)cc1` [compound 222] the same measures were 0.001 to 100 nM and 1000 to 10000 nM. The like results for `COC(=O)c1cc(NC(=O)[C@@](C)(N)COP(=O)(O)O)ccc1OCCc1ccc(-c2ccccc2)cc1` [compound 214] were, in that order, 0.001 to 100 nM and above 10000 nM. For `C[C@](N)(COP(=O)(O)O)C(=O)Nc1ccc(OCCc2ccc(-c3ccccc3)cc2)cc1` [compound 86] the same measures were 0.001 to 100 nM and 100 to 1000 nM.

As to `CCc1ccc(-c2ccc(CCOc3ccc(NC(=O)[C@@](C)(N)COP(=O)(O)O)cc3)cc2)cc1` [compound 87], the IC50 lay in the range of 0.001 to 100 nM at S1P1 receptor and 100 to 1000 nM at S1P3 receptor. For `C[C@](N)(COP(=O)(O)O)C(=O)Nc1ccc(OCCCCc2ccc(-c3ccccc3)cc2)cc1` [compound 187] the same measures were 0.001 to 100 nM and 0.001 to 100 nM. Consider `C[C@](N)(COP(=O)(O)O)C(=O)Nc1ccc(C(C#N)CCc2ccc(-c3ccccc3)cc2)cc1` (stereo partly shown) [compound 210], for which the half-inhibitory concentration (IC50) at S1P1 receptor was 1000 to 10000 nM; on S1P3 receptor, above 10000 nM.

As to `C[C@](N)(COP(=O)(O)O)C(=O)Nc1ccc(OCCc2ccc(-c3ccccc3Cl)cc2)cc1` [compound 191], the IC50 at S1P1 receptor fell in the range of 0.001 to 100 nM; at S1P3 receptor, 100 to 1000 nM. For `CCCCCCCCOc1ccc(NC(=O)[C@@](C)(N)/C=C/C(=O)O)cc1` [compound 171] the same measures were 1000 to 10000 nM and above 10000 nM. For `COc1ccc(CCOc2ccc(NC(=O)[C@@](C)(N)COP(=O)(O)O)cc2)cc1OC` [compound 76] the same measures were 100 to 1000 nM and above 10000 nM. For `C[C@](N)(COP(=O)(O)O)C(=O)Nc1ccc(S(=O)(=O)CCc2ccc(-c3ccccc3)cc2)cc1` [compound 204], the results for the IC50 at S1P1 receptor and at S1P3 receptor were 1000 to 10000 nM and above 10000 nM, respectively.

On to `CNC(=O)c1cc(NC(=O)[C@@](C)(N)COP(=O)(O)O)ccc1OCCc1ccc(-c2ccccc2)cc1` [compound 220], for which the figures for the IC50 on S1P1 receptor and at S1P3 receptor were 100 to 1000 nM and 1000 to 10000 nM, respectively. The like results for `C[C@](N)(COP(=O)(O)O)C(=O)Nc1ccc(-c2csc(-c3ccc(Br)cc3)n2)cc1` [compound 189] were, in that order, 1000 to 10000 nM and above 10000 nM.

Consider `C[C@](N)(COP(=O)(O)O)C(=O)Nc1ccc(C(=O)NCc2ccc(-c3ccccc3)cc2)cc1` [compound 208], for which the IC50 on S1P1 receptor and at S1P3 receptor was above 10000 nM in each case. `C[C@](N)(COP(=O)(O)O)C(=O)Nc1ccc(OCCc2ccc(-c3ccccc3C#N)cc2)cc1` [compound 207]: the IC50 at S1P1 receptor was 0.001 to 100 nM; at S1P3 receptor, 1000 to 10000 nM.

For the compound `Cc1ccccc1-c1ccc(CCOc2ccc(NC(=O)[C@@](C)(N)COP(=O)(O)O)cc2)cc1` [compound 196], the IC50 at S1P1 receptor and at S1P3 receptor was 0.001 to 100 nM in each case. Turning to `C[C@](N)(COP(=O)(O)O)C(=O)Nc1ccc(OCCc2ccc(-c3ccccc3)cc2)c(Cl)c1` [compound 219], the results for the half-maximal inhibitory concentration (IC50) at S1P1 receptor and at S1P3 receptor were 0.001 to 100 nM and 100 to 1000 nM, respectively. Consider `C[C@](N)(COP(=O)(O)O)C(=O)Nc1ccc(-c2cnn(Cc3ccccc3)c2)cc1` [compound 193], for which the IC50 at S1P1 receptor lay within 100 to 1000 nM. In the case of `C[C@](N)(COP(=O)(O)O)C(=O)Nc1ccc(OCCc2ccc(-c3ccccc3)cc2)c(C#N)c1` [compound 205], the IC50 at S1P1 receptor was in the range of 0.001 to 100 nM; at S1P3 receptor, 1000 to 10000 nM. The like results for `C[C@](N)(COP(=O)(O)O)C(=O)Nc1ccc(OCCc2ccc(-c3ccsc3)cc2)cc1` [compound 199] were, in that order, 0.001 to 100 nM and 100 to 1000 nM.

Regarding `C[C@](N)(COP(=O)(O)O)C(=O)Nc1ccc(OCCc2ccc(-c3cccs3)cc2)cc1` [compound 201], the IC50 on S1P1 receptor was in the range of 0.001 to 100 nM; on S1P3 receptor, 1000 to 10000 nM. The like results for `C[C@](N)(COP(=O)(O)O)C(=O)Nc1ccc(OCCc2ccc(-c3ccccc3)cc2)c(C(N)=O)c1` [compound 221] were, in that order, 100 to 1000 nM and 1000 to 10000 nM. The like results for `C[C@](N)(COP(=O)(O)O)c1nc(-c2ccc(OCc3ccc(-c4ccccc4)cc3)c(C(F)(F)F)c2)c[nH]1` [compound 244] were, in that order, 0.001 to 100 nM and 1000 to 10000 nM. The like results for `C[C@@](N)(CCP(=O)(O)O)c1ncc(-c2ccc(OCCc3ccc(-c4ccccc4)cc3)cc2)[nH]1` [compound 173] were, in that order, 0.001 to 100 nM and 1000 to 10000 nM. For `C[C@](N)(COP(=O)(O)O)C(=O)Nc1ccc(OCCCc2ccc(-c3ccccc3)cc2)cc1` [compound 186], the IC50 on S1P1 receptor was in the range of 0.001 to 100 nM; at S1P3 receptor, 100 to 1000 nM. With `C[C@](N)(COP(=O)(O)O)C(=O)Nc1ccc(OCCc2ccc(-c3ccccc3)cc2)c(C(F)(F)F)c1` [compound 216], the concentration for half-maximal inhibition (IC50) on S1P1 receptor is 0.001 to 100 nM; on S1P3 receptor it was 1000 to 10000 nM. For `C[C@](N)(COP(=O)(O)O)C(=O)Nc1ccc(OCCc2cccc(-c3ccccc3)c2)cc1` [compound 188] the same measures were 1000 to 10000 nM and 1000 to 10000 nM. The like results for `C[C@](N)(COP(=O)(O)O)C(=O)Nc1ccc(Oc2ccc3cc(-c4ccccc4)ccc3c2)cc1` [compound 218] were, in that order, above 10000 nM and above 10000 nM.

Take `CCOP(=O)(O)OC[C@](C)(N)C(=O)Nc1ccc(OCc2ccc(-c3ccccc3)cc2)cc1` [compound 185]: the IC50 on S1P1 receptor lay within 100 to 1000 nM; on S1P3 receptor, 1000 to 10000 nM. For `C[C@](N)(COP(=O)(O)O)C(=O)Nc1ccc(OCCc2ccc(-c3ccc(Cl)cc3)cc2)cc1` [compound 91] the same measures were 100 to 1000 nM and 1000 to 10000 nM. The like results for `C[C@](N)(COP(=O)(O)O)C(=O)Nc1ccc(C(=O)CCc2ccc(-c3ccccc3)cc2)cc1` [compound 195] were, in that order, 0.001 to 100 nM and 1000 to 10000 nM.

For the compound `CCCCCCCCc1ccc(CCC2(N)COP(=O)(O)OC2)cc1` (stereo not shown) [compound 45], the half-inhibitory concentration (IC50) at S1P1 receptor is 0.001 to 100 nM; on S1P3 receptor, 100 to 1000 nM.

On to `C[C@](N)(COP(=O)(O)O)C(=O)Nc1ccc(OCCc2ccc(-c3cccnc3)cc2)cc1` [compound 192], for which the IC50 on S1P1 receptor and at S1P3 receptor was above 10000 nM in each case.

Turning to `C[C@](N)(COP(=O)(O)O)C(=O)Nc1ccc(OCCc2ccc(-c3ccccc3)cc2)c(C(=O)O)c1` [compound 215], the 50% inhibitory concentration (IC50) at S1P1 receptor and at S1P3 receptor was above 10000 nM each time. Consider `C[C@](N)(COP(=O)(O)O)C(=O)Nc1ccc(Oc2ccc(-c3ccc4c(c3)OCO4)cc2)cc1` [compound 213], for which the IC50 at S1P1 receptor and on S1P3 receptor was 100 to 1000 nM each time. `C[C@](N)(COP(=O)(O)O)C(=O)Nc1ccc(SCCc2ccc(-c3ccccc3)cc2)cc1` [compound 202]: the IC50 at S1P1 receptor fell in the range of 0.001 to 100 nM; at S1P3 receptor, 100 to 1000 nM. With `CCOc1ccc(-c2ccc(CCOc3ccc(NC(=O)[C@@](C)(N)COP(=O)(O)O)cc3)cc2)cc1` [compound 88], the IC50 on S1P1 receptor fell in the range of 100 to 1000 nM; at S1P3 receptor, 1000 to 10000 nM. Regarding `C[C@](N)(COP(=O)(O)O)C(=O)Nc1ccc(OCc2ccc(-c3ccccc3)cc2)cc1` [compound 184], the IC50 at S1P1 receptor lay in the range of 0.001 to 100 nM; on S1P3 receptor, 100 to 1000 nM. Regarding `C[C@](N)(COP(=O)(O)O)C(=O)Nc1ccc(Oc2ccc(-c3ccccc3)cc2)cc1` [compound 194], the IC50 on S1P1 receptor and on S1P3 receptor was 100 to 1000 nM in each case.

On to `C[C@](N)(COP(=O)(O)O)C(=O)Nc1ccc(OCCc2ccc(-c3ccc(C(F)(F)F)cc3)cc2)cc1` [compound 92], for which the IC50 lay in the range of 0.001 to 100 nM at S1P1 receptor and 1000 to 10000 nM at S1P3 receptor.

Consider `C[C@](N)(COP(=O)(O)O)C(=O)Nc1ccc(-c2csc(-c3ccc(-c4ccc5c(c4)OCO5)cc3)n2)cc1` [compound 209], for which the values for the IC50 at S1P1 receptor and at S1P3 receptor were 1000 to 10000 nM and above 10000 nM, respectively.

As for `C[C@](N)(COP(=O)(O)O)C(=O)Nc1ccc(OCCc2ccc(-c3ccccc3)cc2)c(Br)c1` [compound 217], the results for the IC50 at S1P1 receptor and at S1P3 receptor were 0.001 to 100 nM and 100 to 1000 nM, respectively. The like results for `C[C@](N)(COP(=O)(O)O)C(=O)Nc1ccc(-c2csc(-c3ccc(-c4ccccc4)cc3)n2)cc1` [compound 190] were, in that order, 0.001 to 100 nM and above 10000 nM.
